Measured values published in ChEMBL document CHEMBL5725356, “Anti-fibrotic pyridinones” (2017).

Experiment: ET-1 Assay: Fibroblasts (primary human lung and dermal, HFL-1, 3T3 etc) are seeded in 96-well plates at ~15000 cells/well and serum starved for 0-48 hours. After media exchange, compounds serially diluted in DMSO are added to the cells. After a brief incubation of ~30 min, stimulants (TGFb, serum, LPA etc) are added followed by further incubation for 16-48 hours. Media is then harvested and stored frozen in plate format for later endothelin-1 (ET-1) determination by ELISA. Toxicity measurements are made using the ATPlite kit (Perkin-Elmer). ET-1 is quantified using an ELISA kit (R&D Systems). The amount of ET-1 produced in the assay wells are back-calculated using the ELISA standard. The ability of a compound to inhibit ET-1 production is typically analyzed by fitting dose-response curves to a 4-parameter logistic function to obtain an EC50 value.
Conditions: HFL1
In the case of `Cn1cc(-c2c[nH]c(=O)c3[nH]ccc23)cn1`, the EC50 is reported as under 50 µM. Molecule `Cc1ccc2c(c1)CC(=O)N2c1ccc(OC(F)(F)F)cc1` has an EC50 of over 200 µM. For `Cn1cc(-c2cn(-c3ccc(C#N)cc3)c(=O)c3cccnc23)cn1`, the EC50 was “in the range around 125 µM”. `Cc1cc(=O)n(-c2cccc(C(N)=O)c2)cc1-c1ccc(F)cc1` showed an EC50 of over 200 µM. In the case of `CCOc1ccc(-n2cc(-c3cnn(C)c3)c(OC3CCOCC3)cc2=O)c(C)c1`, the EC50 is reported as “in the range around 125 µM”. With `Cc1cc(=O)n(-c2ccc(OC(F)(F)F)cc2)cc1-c1cccc2ncsc12` the EC50 was under 50 µM. With `COc1cc(=O)n(-c2ccc(OC(F)(F)F)cc2)cc1-c1ccc(F)cc1` the EC50 was over 200 µM. `COCCOc1ccc(-n2cc(-c3ccccc3)c(C)cc2=O)cc1` gave an EC50 of under 50 µM. Work on `Cn1cc(-c2cn(-c3ccc(OC(F)(F)F)cc3)c(=O)c3ncn(C)c23)cn1` [AKEX-0011] yielded an EC50 of under 50 µM. In the case of `CCOc1ccc(-n2cc(-c3cnn(C)c3)c(N(C)Cc3ccccc3)cc2=O)c(C)c1`, the EC50 is reported as under 50 µM. With `Cc1cn(-c2ccccc2)c(=O)c2c1CCCC2` the EC50 was “in the range around 125 µM”. Molecule `CN1C(=O)COc2c(-c3cnn(C)c3)cn(-c3ccc(OC(F)(F)F)cc3)c(=O)c21` has an EC50 of over 200 µM. For `O=c1ccc(-c2cn[nH]c2)cn1-c1ccc(OC(F)(F)F)cc1`, the EC50 was under 50 µM. Molecule `CCOc1ccc(-n2cc(-c3cn[nH]c3)c3cc[nH]c3c2=O)c(C)c1` has an EC50 of under 50 µM. For `CCOc1ccc(-n2cc(-c3cnn(C)c3)c(OCCOCCOC)cc2=O)c(C)c1`, the EC50 was “in the range around 125 µM”. With `Cc1n[nH]c(C)c1-c1ccc(=O)n(-c2cccc(C(F)(F)F)c2)c1` the EC50 was “in the range around 125 µM”. With `O=C1CCCN1CCOc1cc(=O)n(-c2ccc(OC(F)(F)F)cc2)cc1-c1ccc(F)cc1` the EC50 was over 200 µM. For `CCOc1ccc(CNc2cc(=O)n(-c3ccc(OC(F)(F)F)cc3)cc2-c2cnn(C)c2)c(F)c1`, the EC50 was under 50 µM. Molecule `Cc1cc(=O)n(-c2ccc(OC(F)(F)F)cc2)cc1-c1ccc2c(c1)OCC(=O)N2CCO` has an EC50 of over 200 µM. `Cc1cc(=O)n(-c2ccc(OC(F)(F)F)cc2C)cc1-c1ccc(F)cc1` gave an EC50 of under 50 µM. With `CC(C)n1cc(-c2cn(-c3ccc(OC(F)(F)F)cc3)c(=O)c3c2ncn3C)cn1` the EC50 was under 50 µM. `Cc1cc(=O)n(-c2ccc(OC(F)(F)F)cc2)cc1-c1cnc2nccn2c1` showed an EC50 of over 200 µM. For `Cn1cc(-c2cn(-c3ccc(OC(F)(F)F)cc3)c(=O)cc2NCc2cccnc2)cn1`, the EC50 was “in the range around 125 µM”. With `CCOC(=O)Nc1cccc(-n2cc(-c3ccc(F)cc3)c(C)cc2=O)c1` the EC50 was under 50 µM. For `Cn1cc(-c2cn(-c3ccc(OC(F)(F)F)cc3)c(=O)cc2N2CCc3ccccc3C2)cn1`, the EC50 was “in the range around 125 µM”. With `Cn1cc(-c2cn(-c3ccc(OC(F)(F)F)cc3)c(=O)cc2NCc2ccc(F)cc2F)cn1` the EC50 was under 50 µM. Work on `Cc1nc2c(-c3cnn(C)c3)cn(-c3ccc(OC(F)(F)F)cc3)c(=O)c2s1` yielded an EC50 of under 50 µM. For `O=c1ccc(-c2ccccc2)cn1-c1ccccc1Cl`, the EC50 was “in the range around 125 µM”. `CCOc1ccc(-n2cc(Br)ccc2=O)c(C)c1` gave an EC50 of over 200 µM. Molecule `Cc1cc(=O)[nH]cc1-c1cccc2c1OC(F)(F)O2` has an EC50 of under 50 µM. In the case of `CC(C)Oc1ccc(-n2cc(-c3ccc(F)cc3)ccc2=O)cc1`, the EC50 is reported as “in the range around 125 µM”. With `O=c1c2c(ccn2C2CC2)c(-c2cn[nH]c2)cn1-c1ccc(OC(F)(F)F)cc1` the EC50 was under 50 µM. With `Cn1cc(-c2cn(-c3ccc(OC(F)(F)F)cc3)c(=O)cc2NCc2cnccn2)cn1` the EC50 was “in the range around 125 µM”. Molecule `N#Cc1ccc(-n2cc(-c3cn[nH]c3)c3ncccc3c2=O)cc1` has an EC50 of over 200 µM. `O=C1NC=CCN1c1ccccc1` gave an EC50 of over 200 µM. Molecule `Cn1cc(-c2cn(-c3ccc(Cl)cc3)c(=O)c3[nH]ccc23)cn1` has an EC50 of under 50 µM. With `CCOc1ccc(-n2cc(-c3cccc(F)c3)c(C)cc2=O)c(C)c1` the EC50 was “in the range around 125 µM”. With `Cn1cc(-c2cnc(=O)n(-c3ccccc3)c2)cn1` the EC50 was over 200 µM. `CCOc1ccc(-n2cc(-c3ccnnc3)c(C)cc2=O)c(C)c1` gave an EC50 of under 50 µM. Molecule `CCOCCn1ccc2c(-c3cn[nH]c3)cn(-c3ccc(OC(F)(F)F)cc3)c(=O)c21` has an EC50 of under 50 µM. In the case of `Cc1cc(=O)n(-c2ccc(C(F)(F)F)cc2)cc1-c1cnn(C)c1`, the EC50 is reported as “in the range around 125 µM”. In the case of `Cc1cc(-c2ccc(F)cc2)cn(-c2ccc(OC(F)(F)F)cc2)c1=O`, the EC50 is reported as “in the range around 125 µM”. With `COC(=O)Nc1cc(=O)n(-c2ccc(OC(F)(F)F)cc2)cc1-c1cnn(C)c1` the EC50 was over 200 µM. Molecule `Cn1cnc2c(-c3ccc(F)cc3)cn(-c3ccc(OC(F)(F)F)cc3)c(=O)c21` has an EC50 of under 50 µM. With `COc1ccc(-n2cc(-c3cn[nH]c3)ccc2=O)cc1` the EC50 was over 200 µM. In the case of `Cc1cc(=O)n(-c2ccccc2)cc1-c1ccc(F)cc1`, the EC50 is reported as “in the range around 125 µM”. Molecule `O=c1c2cccnc2c(-c2ccc(F)cc2)cn1-c1ccc(OC(F)(F)F)cc1` has an EC50 of over 200 µM. With `O=C(Nc1cc(=O)n(-c2ccc(OC(F)(F)F)cc2)cc1-c1ccc(F)cc1)Oc1ccccc1` the EC50 was over 200 µM. With `O=c1ccc(-c2ccc(F)cc2)cn1-c1cccc(C(F)(F)F)c1` the EC50 was “in the range around 125 µM”. In the case of `Cc1cc(=O)n(-c2ccc(Cl)cc2C)cc1-c1cnn(C)c1`, the EC50 is reported as “in the range around 125 µM”. Molecule `Cc1cc(=O)n(-c2ccc3ocnc3c2)cc1-c1cnn(C)c1` has an EC50 of over 200 µM. With `Cc1cc(=O)n(-c2ccc(OC(F)(F)F)cc2)cc1-c1ccnnc1` the EC50 was “in the range around 125 µM”. Work on `Cc1cc(=O)n(-c2ccc(OC(F)(F)F)cc2)cc1-c1ccccc1` yielded an EC50 of under 50 µM. `Cc1cc(=O)n(-c2ccc(OC(F)(F)F)cc2)cc1-c1ccnn1C` gave an EC50 of over 200 µM. Work on `O=c1ccc(-c2cccc(Cl)c2)cn1-c1ccc(Cl)cc1` yielded an EC50 of under 50 µM. In the case of `CC(=O)Nc1cccc(-n2cc(-c3ccccc3)c(C)cc2=O)c1`, the EC50 is reported as over 200 µM. Work on `Cc1cc(=O)n(-c2ccc(Cl)cc2)cc1-c1ccnnc1` yielded an EC50 of over 200 µM. In the case of `CCOc1ccc(-n2cc(-c3cn[nH]c3)c3nccnc3c2=O)c(C)c1`, the EC50 is reported as under 50 µM. With `CC(C)Oc1ccc(-n2cc(-c3cn[nH]c3)ccc2=O)cc1` the EC50 was “in the range around 125 µM”. In the case of `O=c1cc2ccccc2cn1-c1ccccc1`, the EC50 is reported as “in the range around 125 µM”. Work on `Cc1cc(=O)n(-c2cccc(C(F)(F)F)c2)cc1-c1ccccc1` yielded an EC50 of under 50 µM. `Cc1cc(=O)n(-c2ccc3[nH]cnc3c2)cc1-c1cnn(C)c1` showed an EC50 of over 200 µM. With `O=c1c2[nH]ccc2c(-c2cn[nH]c2)cn1-c1ccc(Cl)cc1` the EC50 was under 50 µM. `CC(=O)c1ccc(=O)n(-c2ccc(Cl)cc2)c1` gave an EC50 of over 200 µM. Work on `CCn1ccc2c(=O)n(-c3ccc(OC(F)(F)F)cc3)cc(-c3cnn(C)c3)c21` yielded an EC50 of under 50 µM. `CS(=O)(=O)n1cc(-c2ccc(=O)n(-c3ccccc3)c2)cn1` showed an EC50 of over 200 µM. With `CCOc1ccc(-n2cc(-c3cnn(C)c3)c3nn(CC)nc3c2=O)c(C)c1` the EC50 was “in the range around 125 µM”. Molecule `COc1cc(=O)n(-c2ccc(OC(F)(F)F)cc2)cc1-c1cnn(C)c1` has an EC50 of under 50 µM. Work on `Cn1cc(-c2cn(-c3ccc(OC(F)(F)F)cc3)c(=O)c3c2ncn3C)cn1` yielded an EC50 of under 50 µM. `Cn1cc(-c2cn(-c3ccc(OC(F)(F)F)cc3)c(=O)cc2NCc2cncnc2)cn1` showed an EC50 of under 50 µM. Molecule `CC(C)n1cc(-c2ccc(=O)n(-c3ccccc3)c2)cn1` has an EC50 of over 200 µM. Molecule `COc1ccc(-n2cc(-c3ccc(S(N)(=O)=O)cc3)ccc2=O)cc1` has an EC50 of over 200 µM. In the case of `CNc1cc(=O)n(-c2ccc(OC(F)(F)F)cc2)cc1-c1cnn(C)c1`, the EC50 is reported as over 200 µM. In the case of `Cn1cc(-c2cn(-c3ccc(OC(F)(F)F)cc3)c(=O)cc2NCc2ccc(C#N)cc2F)cn1`, the EC50 is reported as under 50 µM. Molecule `CCOc1ccc(-n2cc(-c3cnn(C)c3)c(NCc3cccnc3)cc2=O)c(C)c1` has an EC50 of under 50 µM. `CC(=O)Nc1cc(=O)n(-c2ccc(OC(F)(F)F)cc2)cc1-c1ccc(F)cc1` showed an EC50 of over 200 µM. `CCn1c(=O)oc2ccc(-c3c[nH]c(=O)cc3C)cc21` showed an EC50 of under 50 µM. For `Cc1cc(-c2cnn(C)c2)cn(-c2ccc(OC(F)(F)F)cc2)c1=O`, the EC50 was “in the range around 125 µM”.
